From paper PMC6149869 (OncoTargets and therapy, 2018) come the findings set out here.

Data set [1] in a line: Clearance of sorafenib in cultured MHCC97-H cells. The format is in vitro ADME. Conditions: human, Half-life (t1/2 value) of Sor, 1 µmol/L sorafenib.
The test system of data set [2] is MHCC97-H cells. The data set is described as follows: Subcutaneous HCC tumor growth model. The format is in vivo, nude mice. Conditions: sorafenib 2 mg/kg oral; Figure 3.
Data set [3] has as its system MHCC97-H cells. The data set is described as follows: Intrahepatic HCC tumor growth model. The format is in vivo, nude mice. Conditions: sorafenib 2 mg/kg oral; Figure 4.
Data set [4] has as its system MDR-1. The data set is described as follows: qPCR expression of PXR downstream gene MDR-1 in MHCC97-H cells. The conditions noted are these: human.

As a reminder, the half-life is how long it takes for the measured level to halve. `CNC(=O)c1cc(Oc2ccc(NC(=O)Nc3ccc(Cl)c(C(F)(F)F)c3)cc2)ccn1` [Sor, sorafenib]: the half-life at 1 µmol/L in data set [1] (miR-140-3p) is 21.6 ± 5.3 h; in data set [1] (miR-140-3p + inhibitor), 14.7 ± 5.87 h. Besides, the “Effect on subcutaneous growth of HCC cells in nude mice” value in data set [2] is “significantly inhibit the subcutaneous growth of HCC cells”. Also, in data set [3], the “Effect on intrahepatic growth of MHCC97-H cells in livers of nude mice” value is recorded as “significantly inhibit the intrahepatic growth of MHCC97-H cells”.
By EC50 is commonly meant the concentration that produces a half-maximal response. Higher therefore signals weaker potency. Regarding `CO[C@H]1/C=C/O[C@@]2(C)Oc3c(C)c(O)c4c(O)c(c(/C=N/N5CCN(C)CC5)c(O)c4c3C2=O)NC(=O)/C(C)=C\C=C\[C@H](C)[C@H](O)[C@@H](C)[C@@H](O)[C@@H](C)[C@H](OC(C)=O)[C@@H]1C` [rifampicin, Rifampicin], the EC50 at 24 h in data set [4] worked out at 1810 ± 290 nM.
